Experimental data taken from article PMC8151276, “An Integrated Approach toward NanoBRET Tracers for Analysis of GPCR Ligand Engagement” (Molecules, 2021).

What was measured:
Assay type in all cases: binding
GALR3 = target: T1, GALR3 (Homo sapiens, UniProt O60755); assay: NanoBRET screen HiBiT-GALR3 in HEK293
T1 construct: purchased Promega (in-house HiBiT-GPCR construct library, NanoBRET)
T1 sequence (O60755 1-368): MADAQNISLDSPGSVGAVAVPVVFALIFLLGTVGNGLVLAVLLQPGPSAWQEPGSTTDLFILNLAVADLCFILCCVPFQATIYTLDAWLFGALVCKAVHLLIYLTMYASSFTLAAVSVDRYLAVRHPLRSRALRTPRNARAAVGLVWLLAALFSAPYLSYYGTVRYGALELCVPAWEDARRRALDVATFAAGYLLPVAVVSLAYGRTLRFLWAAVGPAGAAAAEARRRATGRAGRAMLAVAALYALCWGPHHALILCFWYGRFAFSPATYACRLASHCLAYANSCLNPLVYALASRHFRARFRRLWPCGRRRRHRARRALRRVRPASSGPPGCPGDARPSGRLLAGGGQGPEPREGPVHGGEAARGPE
Description: (§1) Each tracer candidate was screened across the entire library of HiBiT-GPCR constructs using NanoBRET as the detection modality. As depicted in Figure 4A, the specificity of interactions was evaluated through decrease in BRET due to competitive displacement of a bound tracer by excess parental compound. Each tracer was analyzed for binding to each HiBiT-GPCR fusion in the absence and in the presence of competing parental compound. Briefly, HEK293 cells were transfected with HiBiT-GPCR constructs diluted into promoterless DNA to reduce expression and maximize translocation to the cell surface. Each tracer candidate was then screened at concentrations of 1 μM and 0.1 μM across cells expressing these fusions. Cells were treated for 1.5 h with tracer either alone or in the presence of 20 μM competing parental compound (i.e., control). BRET was measured upon addition of purified LgBiT and subsequent complementation with HiBiT genetically fused to a GPCR. The specificity of interactions was assessed through a decrease in BRET signal due to competitive displacement of the bound tracer. To further gauge the robustness of these interactions, the fold response over the control (i.e., BRETtracer/BRETcontrol) was calculated. We chose a 1.5-fold response, which translates to ≥7-fold signal over noise as the minimal threshold required to score an interaction as positive. […]. Below we highlight the screening results obtained for our exemplary fluorescent tracers based on Clozapine, Amitriptyline and AZD1283.
(§2) HiBiT-GPCR DNA constructs were diluted in 10 mM Tris pH 8 to a final concentration of 0.01 μg/μL, arrayed in 96-well plates and stored at −20 °C. For transfection, HEK293 cells were suspended in Opti-MEM (without phenol red) supplemented with 2% fetal bovine serum (Seradigm) and 100 units/mL penicillin–streptomycin (Gibco) at a final concentration of 220,000 cells/mL and dispensed into white 96-well plates at 90 μL/well. Subsequent transfections and screens were carried using an Agilent Bravo Automated Liquid Handling Platform. First, the 96-well HiBiT DNA arrays were diluted 25-fold in Opti-MEM (without serum or phenol red) to a final concentration of 0.0004 μg/μL and 20 μL of the diluted DNAs were transferred into new 96-well plates. Next, promoterless carrier DNA (1 μg/μL) was diluted 25-fold (0.04 μg/μL) and then dispensed into the diluted arrays at 20 μL/well. Following brief mixing, Viafect transfection reagent (Promega) diluted 16-fold into Opti-MEM was dispensed into the plates at 40 μL/well. After mixing by pipetting, plates were incubated for 10 min on the pipetting station deck. The DNA-transfection reagent complexes were then added to plates containing cells. To facilitate the screen, 10 μL of DNA-transfection reagent complexes were added in duplicates to the top 4 and bottom 4 rows, resulting in two identical 48-well arrays per plate. Plates with transfected cells were incubated for 18–20 h at 37 °C/5% CO2. A screen of each tracer across the entire library using two different concentrations requires duplicate plates of transfected cells. Depending on the number of tracers being screened, transfections can be scaled up using the same ratios. The next day, for each tracer, four 20× screening solutions in tracer dilution buffer (Promega) were prepared: two duplicates at final concentration of 20 μM and two duplicates at a final concentration of 2 μM. A competing unmodified compound was added to one of each duplicate at a final concentration of 400 μM. The four resulting solutions were diluted 4-fold in Opti-MEM without serum or phenol red to generate 5× solutions (5 µM and 0.5 µM tracer +/− 100 μM competing compound). To screen the library, a BioTek MultiFlo FX liquid dispenser was used to dispense 22.5 µL of tracer solution to the top 4 rows and 22.5 µL tracer + competing compound solution to the 4 bottom rows. Plates were briefly mixed on an orbital shaker and incubated for 1.5 h at room temperature. […]

MC4R = target: T2, MC4R (Homo sapiens, UniProt P32245); assay: NanoBRET screen HiBiT-MC4R in HEK293
T2 construct: purchased Promega (in-house HiBiT-GPCR construct library, NanoBRET)
T2 sequence (P32245 whole entry): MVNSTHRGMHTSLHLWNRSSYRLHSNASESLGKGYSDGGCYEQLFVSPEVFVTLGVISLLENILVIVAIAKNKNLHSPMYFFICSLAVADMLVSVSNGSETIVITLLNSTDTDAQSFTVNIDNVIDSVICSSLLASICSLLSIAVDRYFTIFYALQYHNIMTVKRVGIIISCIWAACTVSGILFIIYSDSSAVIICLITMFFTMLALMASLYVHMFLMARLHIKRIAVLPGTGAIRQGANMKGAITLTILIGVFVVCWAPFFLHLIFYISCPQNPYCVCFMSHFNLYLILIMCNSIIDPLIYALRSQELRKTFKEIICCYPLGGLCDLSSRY
Description: as §1, §2

P2RY10 = target: T3, P2RY10 (Homo sapiens, UniProt O00398); assay: NanoBRET screen HiBiT-P2RY10 in HEK293
T3 construct: purchased Promega (in-house HiBiT-GPCR construct library, NanoBRET)
T3 sequence (O00398 whole entry, one chain of several): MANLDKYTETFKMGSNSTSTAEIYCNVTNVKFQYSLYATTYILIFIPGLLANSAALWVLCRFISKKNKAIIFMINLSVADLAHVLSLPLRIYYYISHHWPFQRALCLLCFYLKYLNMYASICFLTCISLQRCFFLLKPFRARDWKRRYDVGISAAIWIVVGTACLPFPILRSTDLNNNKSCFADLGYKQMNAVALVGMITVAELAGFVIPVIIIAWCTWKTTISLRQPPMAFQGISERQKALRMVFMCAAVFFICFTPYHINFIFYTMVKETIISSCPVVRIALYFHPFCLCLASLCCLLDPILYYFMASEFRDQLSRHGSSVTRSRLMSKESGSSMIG
Description: as §1, §2

PDGFRB = target: T4, PDGFRB (Homo sapiens, UniProt P09619); assay: NanoBRET screen HiBiT-PDGFRB in HEK293
T4 construct: purchased Promega (in-house HiBiT-GPCR construct library, NanoBRET)
T4 sequence (P09619 33-1106): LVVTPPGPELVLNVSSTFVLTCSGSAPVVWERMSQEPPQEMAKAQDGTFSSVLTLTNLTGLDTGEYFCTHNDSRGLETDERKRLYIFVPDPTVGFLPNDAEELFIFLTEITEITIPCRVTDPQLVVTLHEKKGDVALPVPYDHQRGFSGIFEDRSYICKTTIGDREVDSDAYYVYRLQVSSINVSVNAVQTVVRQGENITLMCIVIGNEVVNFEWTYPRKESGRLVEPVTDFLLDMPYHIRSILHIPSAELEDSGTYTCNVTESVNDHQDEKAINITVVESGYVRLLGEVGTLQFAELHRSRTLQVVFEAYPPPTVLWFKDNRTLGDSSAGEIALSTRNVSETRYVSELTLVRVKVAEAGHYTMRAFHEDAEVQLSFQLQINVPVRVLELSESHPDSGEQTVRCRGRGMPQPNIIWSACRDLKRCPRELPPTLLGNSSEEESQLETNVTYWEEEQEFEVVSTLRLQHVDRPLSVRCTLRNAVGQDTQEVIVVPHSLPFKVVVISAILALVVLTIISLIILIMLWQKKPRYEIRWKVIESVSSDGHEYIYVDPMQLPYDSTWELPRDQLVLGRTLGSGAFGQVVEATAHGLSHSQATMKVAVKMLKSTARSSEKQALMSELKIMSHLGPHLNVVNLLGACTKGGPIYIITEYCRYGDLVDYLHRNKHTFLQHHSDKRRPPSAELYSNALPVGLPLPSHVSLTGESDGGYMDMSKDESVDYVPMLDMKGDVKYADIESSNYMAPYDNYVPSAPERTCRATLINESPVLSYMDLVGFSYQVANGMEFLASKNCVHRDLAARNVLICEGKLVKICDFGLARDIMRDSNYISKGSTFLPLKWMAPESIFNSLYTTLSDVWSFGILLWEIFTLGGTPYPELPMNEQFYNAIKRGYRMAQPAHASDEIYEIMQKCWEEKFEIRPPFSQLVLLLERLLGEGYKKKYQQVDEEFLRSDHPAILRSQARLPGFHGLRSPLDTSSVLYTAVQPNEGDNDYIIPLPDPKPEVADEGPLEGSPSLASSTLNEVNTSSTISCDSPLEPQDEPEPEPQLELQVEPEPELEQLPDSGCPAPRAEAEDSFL
Description: as §1, §2

GCGR = target: T5, GCGR (Homo sapiens, UniProt P47871); assay: NanoBRET screen HiBiT-GCGR in HEK293
T5 construct: purchased Promega (in-house HiBiT-GPCR construct library, NanoBRET)
T5 sequence (P47871 26-477): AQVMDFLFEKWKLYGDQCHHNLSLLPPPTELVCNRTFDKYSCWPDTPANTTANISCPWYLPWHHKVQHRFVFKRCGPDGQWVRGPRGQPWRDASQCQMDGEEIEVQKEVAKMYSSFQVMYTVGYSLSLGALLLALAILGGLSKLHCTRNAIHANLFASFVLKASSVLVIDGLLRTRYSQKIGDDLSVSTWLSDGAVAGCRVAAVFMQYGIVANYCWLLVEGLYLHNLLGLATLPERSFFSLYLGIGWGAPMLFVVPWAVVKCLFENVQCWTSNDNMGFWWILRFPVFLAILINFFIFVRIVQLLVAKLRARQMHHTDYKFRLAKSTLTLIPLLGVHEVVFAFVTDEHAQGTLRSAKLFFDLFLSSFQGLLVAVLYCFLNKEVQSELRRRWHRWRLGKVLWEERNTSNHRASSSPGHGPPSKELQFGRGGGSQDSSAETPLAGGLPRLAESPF
Description: as §1, §2

P2RY2 = target: T6, P2RY2 (Homo sapiens, UniProt P41231); assay: NanoBRET screen HiBiT-P2RY2 in HEK293
T6 construct: purchased Promega (in-house HiBiT-GPCR construct library, NanoBRET)
T6 sequence (P41231 whole entry): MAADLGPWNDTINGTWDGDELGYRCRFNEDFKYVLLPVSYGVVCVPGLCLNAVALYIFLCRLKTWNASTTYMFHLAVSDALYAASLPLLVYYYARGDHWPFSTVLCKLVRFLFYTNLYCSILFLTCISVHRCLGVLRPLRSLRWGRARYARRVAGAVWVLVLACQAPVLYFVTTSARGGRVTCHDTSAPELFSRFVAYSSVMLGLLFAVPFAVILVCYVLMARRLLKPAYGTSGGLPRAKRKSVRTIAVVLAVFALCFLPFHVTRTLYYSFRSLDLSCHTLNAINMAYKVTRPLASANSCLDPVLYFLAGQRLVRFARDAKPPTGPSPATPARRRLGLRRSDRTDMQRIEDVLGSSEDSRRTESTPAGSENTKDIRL
Description: as §1, §2

ACKR3 = target: T7, ACKR3 (Homo sapiens, UniProt P25106); assay: NanoBRET screen HiBiT-ACKR3 in HEK293
T7 construct: purchased Promega (in-house HiBiT-GPCR construct library, NanoBRET)
T7 sequence (P25106 whole entry): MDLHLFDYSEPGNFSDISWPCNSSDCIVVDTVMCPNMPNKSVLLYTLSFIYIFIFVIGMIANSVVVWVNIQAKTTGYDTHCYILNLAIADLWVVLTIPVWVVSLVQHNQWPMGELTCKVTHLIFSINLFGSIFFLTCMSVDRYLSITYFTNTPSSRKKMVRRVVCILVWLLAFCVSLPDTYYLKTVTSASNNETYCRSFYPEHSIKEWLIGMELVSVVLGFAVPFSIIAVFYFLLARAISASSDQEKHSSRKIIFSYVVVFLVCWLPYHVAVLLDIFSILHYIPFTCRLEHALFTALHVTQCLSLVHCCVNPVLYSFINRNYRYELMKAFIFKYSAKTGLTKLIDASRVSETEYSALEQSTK
Description: as §1, §2

PTGDR = target: T8, PTGDR (Homo sapiens, UniProt Q13258); assay: NanoBRET screen HiBiT-PTGDR in HEK293
T8 construct: purchased Promega (in-house HiBiT-GPCR construct library, NanoBRET)
T8 sequence (Q13258 1-359): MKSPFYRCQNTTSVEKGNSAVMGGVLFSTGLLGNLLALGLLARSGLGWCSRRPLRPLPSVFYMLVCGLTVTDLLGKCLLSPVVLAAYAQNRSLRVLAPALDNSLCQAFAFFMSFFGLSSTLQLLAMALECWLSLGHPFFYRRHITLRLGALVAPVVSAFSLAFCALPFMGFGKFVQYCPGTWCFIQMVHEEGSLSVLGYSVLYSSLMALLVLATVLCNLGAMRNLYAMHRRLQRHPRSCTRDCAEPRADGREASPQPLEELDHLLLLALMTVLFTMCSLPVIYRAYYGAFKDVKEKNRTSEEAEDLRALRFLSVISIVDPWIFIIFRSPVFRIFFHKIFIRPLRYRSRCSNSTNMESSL
Description: as §1, §2

CCR2 = target: T9, CCR2 (Homo sapiens, UniProt P41597); assay: NanoBRET screen HiBiT-CCR2 in HEK293
T9 construct: purchased Promega (in-house HiBiT-GPCR construct library, NanoBRET)
T9 sequence (P41597 whole entry): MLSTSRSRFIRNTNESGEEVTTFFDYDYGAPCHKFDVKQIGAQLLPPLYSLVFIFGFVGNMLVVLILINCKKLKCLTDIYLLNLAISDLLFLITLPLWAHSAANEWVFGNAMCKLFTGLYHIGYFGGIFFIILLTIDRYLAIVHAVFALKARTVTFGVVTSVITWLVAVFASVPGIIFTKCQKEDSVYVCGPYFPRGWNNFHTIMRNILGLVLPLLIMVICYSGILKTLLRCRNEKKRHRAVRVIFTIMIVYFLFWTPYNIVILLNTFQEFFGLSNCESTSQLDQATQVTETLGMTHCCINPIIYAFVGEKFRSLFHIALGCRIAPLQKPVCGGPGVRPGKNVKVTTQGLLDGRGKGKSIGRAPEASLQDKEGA
Description: as §1, §2

MC3R = target: T10, MC3R (Homo sapiens, UniProt P41968); assay: NanoBRET screen HiBiT-MC3R in HEK293
T10 construct: purchased Promega (in-house HiBiT-GPCR construct library, NanoBRET)
T10 sequence (P41968 whole entry): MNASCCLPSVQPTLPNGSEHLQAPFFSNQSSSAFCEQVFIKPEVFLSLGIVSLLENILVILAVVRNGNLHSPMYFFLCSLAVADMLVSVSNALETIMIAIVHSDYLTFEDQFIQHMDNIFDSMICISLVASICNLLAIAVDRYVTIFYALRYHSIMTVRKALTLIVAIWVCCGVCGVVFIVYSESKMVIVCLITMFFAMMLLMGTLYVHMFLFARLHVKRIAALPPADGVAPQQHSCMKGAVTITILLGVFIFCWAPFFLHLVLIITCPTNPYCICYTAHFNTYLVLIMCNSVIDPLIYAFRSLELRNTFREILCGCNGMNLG
Description: as §1, §2

Row | Compound | NanoBRET Fold Response (GALR3; 0.1μM tracer) | NanoBRET Fold Response (GALR3; GALR3, 0.1μM tracer) | NanoBRET Fold Response (GALR3; GALR3, 1μM tracer) | NanoBRET Fold Response (MC4R; MC4R, 0.1μM tracer) | NanoBRET Fold Response (MC4R; MC4R, 1μM tracer) | NanoBRET Fold Response (P2RY10; P2RY10, 0.1μM tracer) | NanoBRET Fold Response (P2RY10; P2RY10, 1μM tracer) | NanoBRET Fold Response (PDGFRB; PDGFRB, 0.1μM tracer) | NanoBRET Fold Response (PDGFRB; PDGFRB, 1μM tracer) | NanoBRET Fold Response (GCGR; GCGR, 0.1μM tracer) | NanoBRET Fold Response (GCGR; GCGR, 1μM tracer) | NanoBRET Fold Response (P2RY2; P2RY2, 0.1μM tracer) | NanoBRET Fold Response (P2RY2; P2RY2, 1μM tracer) | NanoBRET Fold Response (ACKR3; ACKR3, 1μM tracer) | NanoBRET Fold Response (PTGDR; PTGDR, 0.1μM tracer) | NanoBRET Fold Response (PTGDR; PTGDR, 1μM tracer) | NanoBRET Fold Response (CCR2; CCR2, 0.1μM tracer) | NanoBRET Fold Response (CCR2; CCR2, 1μM tracer) | NanoBRET Fold Response (MC3R; MC3R, 0.1μM tracer) | NanoBRET Fold Response (MC3R; MC3R, 1μM tracer) | further results
1 | COc1ccc2c(n1)c(CCNC(C)=O)cn2CCNC(=O)CCc1ccc2n1[B-](F)(F)[N+]1=C(c3ccc[nH]3)C=CC1=C2 [Azamelatonin-1-NB590] | 0.81 | – | – | – | – | – | – | – | – | – | – | – | – | – | – | – | – | – | – | – | NanoBRET Fold Response (GALR3; 1μM tracer): 1.05; NanoBRET Fold Response (MC4R; 0.1μM tracer): 0.87; NanoBRET Fold Response (MC4R; 1μM tracer): 1.03; NanoBRET Fold Response (P2RY10; 0.1μM tracer): 0.88; NanoBRET Fold Response (P2RY10; 1μM tracer): 0.88; NanoBRET Fold Response (PDGFRB; 0.1μM tracer): 0.56; NanoBRET Fold Response (PDGFRB; 1μM tracer): 0.56; NanoBRET Fold Response (GCGR; 0.1μM tracer): 1.01; NanoBRET Fold Response (GCGR; 1μM tracer): 1.10; NanoBRET Fold Response (P2RY2; 0.1μM tracer): 0.93; NanoBRET Fold Response (P2RY2; 1μM tracer): 0.93; NanoBRET Fold Response (ACKR3; 0.1μM tracer): 0.84; NanoBRET Fold Response (ACKR3; 1μM tracer): 0.95; NanoBRET Fold Response (PTGDR; 0.1μM tracer): 1.13; NanoBRET Fold Response (PTGDR; 1μM tracer): 1.18; NanoBRET Fold Response (CCR2; 0.1μM tracer): 1.06; NanoBRET Fold Response (CCR2; 1μM tracer): 0.97; NanoBRET Fold Response (MC3R; 0.1μM tracer): 0.93; NanoBRET Fold Response (MC3R; 1μM tracer): 1.22
2 | COc1ccc2[nH]c(-c3ccc(CNC(=O)CCOCCOCCOCCOCCNC(=O)CCc4ccc5n4[B-](F)(F)[N+]4=C(c6ccc[nH]6)C=CC4=C5)cc3)c(CCNC(C)=O)c2n1 [AzomelatoninICO9-2-NB590] | 1.06 | – | – | – | – | – | – | – | – | – | – | – | – | – | – | – | – | – | – | – | NanoBRET Fold Response (GALR3; 1μM tracer): 1.08; NanoBRET Fold Response (MC4R; 0.1μM tracer): 0.92; NanoBRET Fold Response (MC4R; 1μM tracer): 0.98; NanoBRET Fold Response (P2RY10; 0.1μM tracer): 0.88; NanoBRET Fold Response (P2RY10; 1μM tracer): 1.15; NanoBRET Fold Response (PDGFRB; 0.1μM tracer): 0.80; NanoBRET Fold Response (PDGFRB; 1μM tracer): 1.04; NanoBRET Fold Response (GCGR; 0.1μM tracer): 0.90; NanoBRET Fold Response (GCGR; 1μM tracer): 1.05; NanoBRET Fold Response (P2RY2; 0.1μM tracer): 1.06; NanoBRET Fold Response (P2RY2; 1μM tracer): 1.09; NanoBRET Fold Response (ACKR3; 0.1μM tracer): 1.40; NanoBRET Fold Response (ACKR3; 1μM tracer): 0.83; NanoBRET Fold Response (PTGDR; 0.1μM tracer): 1.06; NanoBRET Fold Response (PTGDR; 1μM tracer): 0.88; NanoBRET Fold Response (CCR2; 0.1μM tracer): 1.23; NanoBRET Fold Response (CCR2; 1μM tracer): 1.22; NanoBRET Fold Response (MC3R; 0.1μM tracer): 1.02; NanoBRET Fold Response (MC3R; 1μM tracer): 0.72
3 | O=C(CCOCCOCCOCCOCCNC(=O)CCc1ccc2n1[B-](F)(F)[N+]1=C(c3ccc[nH]3)C=CC1=C2)NCCCN1CCN(C2=Nc3cc(Cl)ccc3Nc3ccccc32)CC1 [Clozapine-a-2-NB590] | – | 1.02 | 1.13 | 1.02 | 1.01 | 1.18 | 1.33 | 1.09 | 0.88 | 0.94 | 1.14 | 1.12 | 0.97 | 1.06 | 1.10 | 0.99 | 1.06 | 0.73 | 1.02 | 0.95 | NanoBRET Fold Response (ACKR3; ACKR3, 0.1μM tracer): 1.05
4 | CN1CCN(C2=Nc3cc(Cl)ccc3Nc3ccc(CNC(=O)CCOCCOCCOCCOCCNC(=O)CCc4ccc5n4[B-](F)(F)[N+]4=C(c6ccc[nH]6)C=CC4=C5)cc32)CC1 [Clozapine-b-2-NB590] | – | 0.93 | 0.91 | 1.03 | 1.05 | 0.96 | 1.15 | 1.02 | 0.99 | 1.02 | 1.04 | 0.96 | 1.00 | 1.05 | 1.10 | 1.01 | 1.01 | 0.93 | 1.05 | 0.94 | NanoBRET Fold Response (ACKR3; ACKR3, 0.1μM tracer): 0.95
5 | CN1CCN(C2=Nc3cc(Cl)ccc3N(CC(=O)NCCOCCOCCOCCOCCNC(=O)CCc3ccc4n3[B-](F)(F)[N+]3=C(c5ccc[nH]5)C=CC3=C4)c3ccccc32)CC1 [Clozapine-c-2-NB590] | – | 1.01 | 1.04 | 1.02 | 1.06 | 1.06 | 0.98 | 1.00 | 0.87 | 0.99 | 1.02 | 0.99 | 0.84 | 0.92 | 1.04 | 1.07 | 0.94 | 0.75 | 1.02 | 1.03 | –
